From paper PMC9120017, “Inhibition mechanism of the chloride channel TMEM16A by the pore blocker 1PBC” (Nature Communications, 2022)
Like-named read-outs stand apart in the source and are kept apart here.

Target: T1, mouse TMEM16A mutant T539A (Mus musculus, UniProt Q8BHY3, T539A)
T1 construct: expressed in transfected cells; host or cells: HEK293T
T1 sequence (Q8BHY3 1-960 T539A): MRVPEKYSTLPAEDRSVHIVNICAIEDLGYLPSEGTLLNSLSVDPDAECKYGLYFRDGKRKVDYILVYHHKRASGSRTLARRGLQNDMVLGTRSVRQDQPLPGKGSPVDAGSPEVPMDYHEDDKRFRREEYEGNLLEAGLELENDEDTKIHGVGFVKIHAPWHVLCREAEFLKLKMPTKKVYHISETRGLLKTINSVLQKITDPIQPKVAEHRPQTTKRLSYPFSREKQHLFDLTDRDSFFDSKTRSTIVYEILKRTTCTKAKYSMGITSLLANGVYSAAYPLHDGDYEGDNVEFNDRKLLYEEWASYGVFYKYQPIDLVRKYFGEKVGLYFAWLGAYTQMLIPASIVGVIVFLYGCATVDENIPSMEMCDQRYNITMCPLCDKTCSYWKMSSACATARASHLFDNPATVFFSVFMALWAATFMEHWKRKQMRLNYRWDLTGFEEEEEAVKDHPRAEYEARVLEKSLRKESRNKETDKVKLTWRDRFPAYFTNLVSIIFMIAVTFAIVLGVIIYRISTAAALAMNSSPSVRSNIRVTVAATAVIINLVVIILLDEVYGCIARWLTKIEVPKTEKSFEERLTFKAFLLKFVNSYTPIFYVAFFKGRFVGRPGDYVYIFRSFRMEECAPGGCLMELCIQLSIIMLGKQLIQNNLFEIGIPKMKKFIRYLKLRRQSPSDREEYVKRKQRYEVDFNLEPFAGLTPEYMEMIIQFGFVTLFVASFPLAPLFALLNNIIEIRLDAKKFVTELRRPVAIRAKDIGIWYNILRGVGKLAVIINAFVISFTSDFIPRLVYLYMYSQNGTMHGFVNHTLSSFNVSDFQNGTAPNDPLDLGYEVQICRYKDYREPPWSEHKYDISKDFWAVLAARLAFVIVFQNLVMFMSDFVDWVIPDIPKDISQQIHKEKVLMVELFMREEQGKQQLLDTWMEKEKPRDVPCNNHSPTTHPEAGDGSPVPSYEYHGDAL
Assay: Inside-out patch recording of 1PBC block, mutant T539A
Format: cell-based
Settings: for remaining activity at 100 µM: 100 µM 1PBC
Protocol: HEK293T cells (ATCC CRL-1573) were maintained in Dulbecco’s modified Eagle’s medium (DMEM; Sigma-Aldrich) supplemented with 10 U ml^−1 penicillin, 0.1 mg ml^−1 streptomycin (Sigma-Aldrich), 2 mM L-glutamine (Sigma-Aldrich), and 10% FBS (Sigma-Aldrich) in a humidified atmosphere containing 5% CO2 at 37 °C. HEK293S GnTI^− cells (ATCC CRL-3022) were maintained in HyClone HyCell TransFx-H medium (GE Healthcare) supplemented with 10 U ml^−1 penicillin, 0.1 mg ml^−1 streptomycin, 4 mM L-glutamine, 0.15% poloxamer 188 (Sigma-Aldrich), and 1% FBS in an atmosphere containing 5% CO2 at 185 rpm at 37 °C. The ac splice variant of mouse TMEM16A (UniProt ID: Q8BHY3), mouse TMEM16B (UniProt ID: Q8CFW1), or mouse TMEM16F (UniProt ID: Q6P9J9) bearing a 3C cleavage site, a Venus YFP, a Myc tag, and a Streptavidin-binding peptide (SBP) downstream of the open reading frame in a modified pcDNA3.1 vector (Invitrogen) were used as described previously[21],[31]. Mutations were introduced using a modified QuikChange method[58] and were verified by sequencing.
HEK293T cells were transfected with 3–4 μg DNA per 6 cm Petri dish using the calcium phosphate co-precipitation method and were used within 24–96 h after transfection. Recordings were performed on inside-out patches excised from HEK293T cells expressing the construct of interest. Patch pipettes were pulled from borosilicate glass capillaries (O.D. 1.5 mm, I.D. 0.86 mm, Sutter Instrument) and were fire-polished with a microforge (Narishige) before use. Pipette resistance was typically 3–8 MΩ when filled with the recording solutions detailed below. Seal resistance was typically 4 GΩ or higher. Voltage-clamp recordings were made using Axopatch 200B, Digidata 1550, and Clampex 10.7 (Molecular Devices). Analog signals were filtered with the in-built 4-pole Bessel filter at 10 kHz and were digitized at 20 kHz. Solution exchange was achieved using a gravity-fed system through a theta glass pipette mounted on an ultra-fast piezo-driven stepper (Siskiyou). […] All recordings were performed at 20 °C.
A symmetrical ionic condition was used throughout. Stock solution with Ca^2+-EGTA contained 150 mM NaCl, 5.99 mM Ca(OH)2, 5 mM EGTA, and 10 mM HEPES at pH 7.40. Stock solution with EGTA contained 150 mM NaCl, 5 mM EGTA, and 10 mM HEPES at pH 7.40. Free Ca^2+ concentrations were adjusted by mixing the stock solutions at the required ratios calculated using the WEBMAXC program (http://web.stanford.edu/~cpatton/webmaxcS.htm). Patch pipettes were filled with the stock solution with Ca^2+-EGTA, which has a free Ca^2+ concentration of 1 mM. 1PBC (ChemBridge) stock was reconstituted in anhydrous DMSO (Sigma-Aldrich) at 100 mM and stored at −20 °C. Working solutions with 1PBC were prepared by serial dilution. Unless otherwise stated, experiments were performed at a saturating Ca^2+ concentration as shown in Supplementary Table 1 and the primary data were corrected for current rundown as described previously[21],[25].
Concentration-response relations, obtained from the ratio of the I-V plots before and after the application of the blocker, were fitted to the Hill equation,1 I/Imax=1/1+IC50/[blocker]^h where I/Imax is the normalized current responses, IC50 defines the concentration at which inhibition is at its half-maximum, and h is the Hill coefficient.

IC50 (0 mV, 2 µM Ca2+): 14.9 µM
remaining activity at 3 µM (3 µM 1PBC, +80 mV, saturating Ca2+ (2 µM), read-out: I/Imax): 77.1%
remaining activity at 3 µM (3 µM 1PBC, -80 mV, saturating Ca2+ (2 µM), read-out: I/Imax): 91.4%
remaining activity at 10 µM (10 µM 1PBC, +80 mV, saturating Ca2+ (2 µM), read-out: I/Imax): 45.4%
remaining activity at 10 µM (10 µM 1PBC, -80 mV, saturating Ca2+ (2 µM), read-out: I/Imax): 71.2%
remaining activity at 30 µM (30 µM 1PBC, +80 mV, saturating Ca2+ (2 µM), read-out: I/Imax): 23.5%
remaining activity at 30 µM (30 µM 1PBC, -80 mV, saturating Ca2+ (2 µM), read-out: I/Imax): 49.4%
remaining activity at 100 µM (+80 mV, saturating Ca2+ (2 µM), read-out: I/Imax): 8.95%
remaining activity at 100 µM (-80 mV, saturating Ca2+ (2 µM), read-out: I/Imax): 25%
remaining activity at 3 µM (1PBC 3, 0 mV, read-out: fraction of unblocked current): 85.3%
remaining activity at 3 µM (1PBC 3, 20 mV, read-out: fraction of unblocked current): 83.3%
remaining activity at 3 µM (1PBC 3, 40 mV, read-out: fraction of unblocked current): 80.1%
remaining activity at 3 µM (1PBC 3, 60 mV, read-out: fraction of unblocked current): 78.3%
remaining activity at 3 µM (1PBC 3, 80 mV, read-out: fraction of unblocked current): 77.1%
remaining activity at 3 µM (1PBC 3, 100 mV, read-out: fraction of unblocked current): 77.2%
remaining activity at 3 µM (1PBC 3, 120 mV, read-out: fraction of unblocked current): 77.7%
remaining activity at 3 µM (1PBC 3, 140 mV, read-out: fraction of unblocked current): 79.8%
remaining activity at 3 µM (1PBC 3, -20 mV, read-out: fraction of unblocked current): 87.2%
remaining activity at 3 µM (1PBC 3, -40 mV, read-out: fraction of unblocked current): 88.4%
remaining activity at 3 µM (1PBC 3, -60 mV, read-out: fraction of unblocked current): 90%
remaining activity at 3 µM (1PBC 3, -80 mV, read-out: fraction of unblocked current): 91.4%
remaining activity at 3 µM (1PBC 3, -100 mV, read-out: fraction of unblocked current): 92.2%
remaining activity at 3 µM (1PBC 3, -120 mV, read-out: fraction of unblocked current): 93.2%
remaining activity at 3 µM (1PBC 3, -140 mV, read-out: fraction of unblocked current): 93.5%
remaining activity at 10 µM (1PBC 10, 0 mV, read-out: fraction of unblocked current): 56.5%
remaining activity at 10 µM (1PBC 10, 20 mV, read-out: fraction of unblocked current): 53.9%
remaining activity at 10 µM (1PBC 10, 40 mV, read-out: fraction of unblocked current): 50.2%
remaining activity at 10 µM (1PBC 10, 60 mV, read-out: fraction of unblocked current): 47.6%
remaining activity at 10 µM (1PBC 10, 80 mV, read-out: fraction of unblocked current): 45.4%
remaining activity at 10 µM (1PBC 10, 100 mV, read-out: fraction of unblocked current): 44.7%
remaining activity at 10 µM (1PBC 10, 120 mV, read-out: fraction of unblocked current): 45.3%
remaining activity at 10 µM (1PBC 10, 140 mV, read-out: fraction of unblocked current): 47%
remaining activity at 10 µM (1PBC 10, -20 mV, read-out: fraction of unblocked current): 59.1%
remaining activity at 10 µM (1PBC 10, -40 mV, read-out: fraction of unblocked current): 63.7%
remaining activity at 10 µM (1PBC 10, -60 mV, read-out: fraction of unblocked current): 67.6%
remaining activity at 10 µM (1PBC 10, -80 mV, read-out: fraction of unblocked current): 71.2%
remaining activity at 10 µM (1PBC 10, -100 mV, read-out: fraction of unblocked current): 73.9%
remaining activity at 10 µM (1PBC 10, -120 mV, read-out: fraction of unblocked current): 76.5%
remaining activity at 10 µM (1PBC 10, -140 mV, read-out: fraction of unblocked current): 78.6%
remaining activity at 30 µM (1PBC 30, 0 mV, read-out: fraction of unblocked current): 34.9%
remaining activity at 30 µM (1PBC 30, 20 mV, read-out: fraction of unblocked current): 31%
remaining activity at 30 µM (1PBC 30, 40 mV, read-out: fraction of unblocked current): 27.7%
remaining activity at 30 µM (1PBC 30, 60 mV, read-out: fraction of unblocked current): 25.4%
remaining activity at 30 µM (1PBC 30, 80 mV, read-out: fraction of unblocked current): 23.5%
remaining activity at 30 µM (1PBC 30, 100 mV, read-out: fraction of unblocked current): 22.5%
remaining activity at 30 µM (1PBC 30, 120 mV, read-out: fraction of unblocked current): 21.8%
remaining activity at 30 µM (1PBC 30, 140 mV, read-out: fraction of unblocked current): 22.4%
remaining activity at 30 µM (1PBC 30, -20 mV, read-out: fraction of unblocked current): 38.8%
remaining activity at 30 µM (1PBC 30, -40 mV, read-out: fraction of unblocked current): 42.4%
SMILES: N#Cc1c(C(F)(F)F)cc(O)n2c1nc1ccccc12 [1PBC]
